Laboratory results taken from publication PMC10590383, “Repurposing conformational changes in ANL superfamily enzymes to rapidly generate biosensors for organic and amino acids” (Nature Communications, 2023).

Columns and labels:
Assay type in all cases: biochemical
[1] = Dose–response curve of purified GECFINDERs with leucine
Method: (§1) Fig. 4 Engineering ligand specificity of GrsA-PheA for generating […]s. a The selectivity-conferring code of Phe and Leu A domains. b–f Dose–response curve of purified […]s with increasing concentrations of ligands in 100 mM Tris-HCl buffer (pH=7.5). All data shown are means ± S.D. (n = 3 biologically independent samples). g A series of […] reactions was tested to show the […]’s specificity with 20 proteinogenic amino acids. The values on the heatmap represent the ΔF/F0 value normalized to each […]’s maximal ΔF/F0 value ((ΔF/F0)/maximal ΔF/F0). The concentrations of 20 amino acids were 100 μM. The color indicates the average value of three independent biological replicates after 15 min. All data shown are means ± S.D. (n = 3 biologically independent samples). Source data are provided as a Source data file.
(§2) The study conducted dose–response curve, substrate specificity, and fluorescent spectrum analyses in 100-mM Tris buffer (pH = 7.5), while pH stability experiments were performed in 100-mM Tris buffer at three different pH values (6.5, 7.5, and 8.5) at room temperature. […] protein at a concentration of 0.75 μM, various small molecule concentrations, 1 mM ATP, and 2.5 mM MgCl2 were used in the experiments. Fluorescent signals were detected using a Microplate Reader (Synergy H4, Bio Tek) at an excitation/emission wavelength of 460 nm/510 nm or 480 nm/510 nm. The dose-response curve was determined immediately after the addition of the analyte. The total duration of the measurement was 15 min, with readings taken at one-minute intervals. The dose-response curve was plotted using the fluorescence values obtained after achieving stability in the fluorescence signal. The dose-response curves were fitted using the logistic model LOGISTIC5 available in Origin 2021, which could provide a more adequate fit to asymmetric dose-response data[62],[63]. Excitation spectra were scanned from 300 to 540 nm with a step size of 5 nm, and the emission wavelength was set to 560 nm. Emission spectra were scanned from 470 to 700 nm with a step size of 5 nm, and the excitation wavelength was set to 450 nm. The thermal stability of […] was analyzed using the UNcle multifunctional protein stability analysis system. Measurements were performed in 20 mM MOPS buffer with 2 mM DTT at a sample concentration of 1 mg/mL. Absolute fluorescence quantum yields were measured using an absolute photoluminescence quantum yield spectrometer (FS5, Edinburgh).

[2] = Substrate (ligand) specificity of […]s; conditions: for AVE of Repeat 1-3, sensor signal with ligand (Supplementary Fig. 7 c): 1 mM ligand, Control AVE 12117.3; for fluorescence response of GECFINDER to each substrate, AVE of 3 repeats: Supplementary Fig. 3 c, substrate specificity
Method: as §1
Ligand specificity is an important biosensors feature. Generally, the NRPS A domains have high specificity for their substrates because they are the first “gatekeeper” of NRPSs and ensure that the correct monomers are activated and thioesterified[32],[33]. Therefore, we speculated that this property would be inherited by our […]s because the ligand-binding pockets were unchanged during the […] creation process. Twenty proteinogenic amino acids were used to test the ligand specificity of […]s. […] We also investigated the dependence of […]s on Mg^2+ and ATP (Supplementary Fig. 4). […] This phenomenon corroborates with the distinct conformational changes observed in Hinge A of Nt4CL2 (Mg^2++ATP) (PDB ID: 5BSM) and Nt4CL2 (Coumaroyl-AMP) (PDB ID: 5BST) reported in the literature (Supplementary Fig. 4k), where the direction of motion in hinge A differs. […] During the determination of quantum yield, we observed that the absolute quantum yield of the […] variants ranged from 0.3 to 0.6 upon addition of the respective substrates, which show no significant difference with that reported in literature. The specific values are provided in Supplementary Table 2.
as §2

[3] = Dose–response curve of purified […]s with tyrosine
Method: as §1, §2

CC(C)C[C@H](N)C(=O)O [Leu]
AVE, dose-response Fig. 4 b ([1]; substrate Leu 0.001 μM): -7.112e-17 | AVE, dose-response Fig. 4 b ([1]; substrate Leu 0.005 μM): 0.003877 | AVE, dose-response Fig. 4 b ([1]; substrate Leu 0.01 μM): 0.02311 | AVE, dose-response Fig. 4 b ([1]; substrate Leu 0.05 μM): 0.04234 | AVE, dose-response Fig. 4 b ([1]; substrate Leu 0.1 μM): 0.03637 | AVE, dose-response Fig. 4 b ([1]; substrate Leu 0.5 μM): 0.02815 | AVE, dose-response Fig. 4 b ([1]; substrate Leu 1 μM): 0.02962 | AVE, dose-response Fig. 4 b ([1]; substrate Leu 5 μM): 0.0138 | AVE, dose-response Fig. 4 b ([1]; substrate Leu 10 μM): 0.1049 | AVE, dose-response Fig. 4 b ([1]; substrate Leu 25 μM): 0.1731 | AVE, dose-response Fig. 4 b ([1]; substrate Leu 50 μM): 0.2052 | AVE, dose-response Fig. 4 b ([1]; substrate Leu 100 μM): 0.2136 | AVE, dose-response Fig. 4 c ([1]; substrate Leu 0.5 μM): 6.794e-17 | AVE, dose-response Fig. 4 c ([1]; substrate Leu 1 μM): 0.0405 | AVE, dose-response Fig. 4 c ([1]; substrate Leu 2 μM): 0.06186 | AVE, dose-response Fig. 4 c ([1]; substrate Leu 5 μM): 0.1266 | AVE, dose-response Fig. 4 c ([1]; substrate Leu 10 μM): 0.1121 | AVE, dose-response Fig. 4 c ([1]; substrate Leu 20 μM): 0.1733 | AVE, dose-response Fig. 4 c ([1]; substrate Leu 50 μM): 0.2857 | AVE, dose-response Fig. 4 c ([1]; substrate Leu 100 μM): 0.4006 | AVE, dose-response Fig. 4 c ([1]; substrate Leu 200 μM): 0.5877 | AVE, dose-response Fig. 4 c ([1]; substrate Leu 500 μM): 0.7587 | AVE, dose-response Fig. 4 c ([1]; substrate Leu 750 μM): 0.8241 | AVE, dose-response Fig. 4 c ([1]; substrate Leu 1000 μM): 0.7953 | AVE, dose-response Fig. 4 d ([1]; substrate Leu 0.005 μM): -5.262e-17 | AVE, dose-response Fig. 4 d ([1]; substrate Leu 0.01 μM): 0.03426 | AVE, dose-response Fig. 4 d ([1]; substrate Leu 0.1 μM): 0.06576 | AVE, dose-response Fig. 4 d ([1]; substrate Leu 1 μM): 0.08826 | AVE, dose-response Fig. 4 d ([1]; substrate Leu 5 μM): 0.1792 | AVE, dose-response Fig. 4 d ([1]; substrate Leu 10 μM): 0.2348 | AVE, dose-response Fig. 4 d ([1]; substrate Leu 50 μM): 0.4576 | AVE, dose-response Fig. 4 d ([1]; substrate Leu 100 μM): 0.5636 | AVE, dose-response Fig. 4 d ([1]; substrate Leu 200 μM): 0.7427 | AVE, dose-response Fig. 4 d ([1]; substrate Leu 500 μM): 0.9952 | AVE, dose-response Fig. 4 d ([1]; substrate Leu 750 μM): 1.079 | AVE, dose-response Fig. 4 d ([1]; substrate Leu 1000 μM): 1.107 | fluorescence response of GECFINDER, AVE of 3 repeats ([1]; Supplementary Fig. 3 a, Leu 0.001 μM): 0 | fluorescence response of GECFINDER, AVE of 3 repeats ([1]; Supplementary Fig. 3 a, Leu 0.005 μM): 0.02218 | fluorescence response of GECFINDER, AVE of 3 repeats ([1]; Supplementary Fig. 3 a, Leu 0.01 μM): 0.03478 | fluorescence response of GECFINDER, AVE of 3 repeats ([1]; Supplementary Fig. 3 a, Leu 0.1 μM): 0.05423 | fluorescence response of GECFINDER, AVE of 3 repeats ([1]; Supplementary Fig. 3 a, Leu 1 μM): 0.08086 | fluorescence response of GECFINDER, AVE of 3 repeats ([1]; Supplementary Fig. 3 a, Leu 10 μM): 0.1724 | fluorescence response of GECFINDER, AVE of 3 repeats ([1]; Supplementary Fig. 3 a, Leu 50 μM): 0.3353 | fluorescence response of GECFINDER, AVE of 3 repeats ([1]; Supplementary Fig. 3 a, Leu 100 μM): 0.4583 | fluorescence response of GECFINDER, AVE of 3 repeats ([1]; Supplementary Fig. 3 a, Leu 500 μM): 0.754 | fluorescence response of GECFINDER, AVE of 3 repeats ([1]; Supplementary Fig. 3 a, Leu 1000 μM): 0.8727 | fluorescence response of GECFINDER, AVE of 3 repeats ([1]; Supplementary Fig. 3 a, Leu 5000 μM): 1.081 | fluorescence response of GECFINDER, AVE of 3 repeats ([1]; Supplementary Fig. 3 a, Leu 10000 μM): 0.9665 | fluorescence response of GECFINDER, AVE of 3 repeats ([1]; Supplementary Fig. 3 b, Leu 0.001 μM): 4.279e-17 | fluorescence response of GECFINDER, AVE of 3 repeats ([1]; Supplementary Fig. 3 b, Leu 0.005 μM): 0.01278 | fluorescence response of GECFINDER, AVE of 3 repeats ([1]; Supplementary Fig. 3 b, Leu 0.01 μM): 0.01795 | fluorescence response of GECFINDER, AVE of 3 repeats ([1]; Supplementary Fig. 3 b, Leu 0.1 μM): 0.04976 | fluorescence response of GECFINDER, AVE of 3 repeats ([1]; Supplementary Fig. 3 b, Leu 1 μM): 0.111 | fluorescence response of GECFINDER, AVE of 3 repeats ([1]; Supplementary Fig. 3 b, Leu 10 μM): 0.3678 | fluorescence response of GECFINDER, AVE of 3 repeats ([1]; Supplementary Fig. 3 b, Leu 50 μM): 0.7094 | fluorescence response of GECFINDER, AVE of 3 repeats ([1]; Supplementary Fig. 3 b, Leu 100 μM): 0.9192 | fluorescence response of GECFINDER, AVE of 3 repeats ([1]; Supplementary Fig. 3 b, Leu 500 μM): 1.615 | fluorescence response of GECFINDER, AVE of 3 repeats ([1]; Supplementary Fig. 3 b, Leu 1000 μM): 1.882 | fluorescence response of GECFINDER, AVE of 3 repeats ([1]; Supplementary Fig. 3 b, Leu 5000 μM): 2.296 | fluorescence response of GECFINDER, AVE of 3 repeats ([1]; Supplementary Fig. 3 b, Leu 10000 μM): 2.333 | AVE of Repeat 1-3, sensor signal with ligand (Supplementary Fig. 7 c) [2]: 12093 | fluorescence response of GECFINDER to each substrate, AVE of 3 repeats [2]: -0.01092

N[C@@H](Cc1ccc(O)cc1)C(=O)O [Tyr]
AVE, dose-response Fig. 4 b ([3]; substrate Tyr 0.5 μM): 7.517e-17 | AVE, dose-response Fig. 4 b ([3]; substrate Tyr 1 μM): 0.02259 | AVE, dose-response Fig. 4 b ([3]; substrate Tyr 5 μM): 0.05606 | AVE, dose-response Fig. 4 b ([3]; substrate Tyr 10 μM): 0.0659 | AVE, dose-response Fig. 4 b ([3]; substrate Tyr 20 μM): 0.09543 | AVE, dose-response Fig. 4 b ([3]; substrate Tyr 50 μM): 0.2237 | AVE, dose-response Fig. 4 b ([3]; substrate Tyr 100 μM): 0.3812 | AVE, dose-response Fig. 4 b ([3]; substrate Tyr 200 μM): 0.5926 | AVE, dose-response Fig. 4 b ([3]; substrate Tyr 250 μM): 0.6977 | AVE, dose-response Fig. 4 b ([3]; substrate Tyr 500 μM): 1.046 | AVE, dose-response Fig. 4 b ([3]; substrate Tyr 750 μM): 1.209 | AVE, dose-response Fig. 4 b ([3]; substrate Tyr 1000 μM): 1.242 | AVE, dose-response Fig. 4 e ([3]; substrate Tyr 0.1 μM): 0 | AVE, dose-response Fig. 4 e ([3]; substrate Tyr 0.2 μM): 0.01578 | AVE, dose-response Fig. 4 e ([3]; substrate Tyr 1 μM): 0.04154 | AVE, dose-response Fig. 4 e ([3]; substrate Tyr 2 μM): 0.05025 | AVE, dose-response Fig. 4 e ([3]; substrate Tyr 10 μM): 0.1198 | AVE, dose-response Fig. 4 e ([3]; substrate Tyr 20 μM): 0.1707 | AVE, dose-response Fig. 4 e ([3]; substrate Tyr 100 μM): 0.4124 | AVE, dose-response Fig. 4 e ([3]; substrate Tyr 200 μM): 0.5306 | AVE, dose-response Fig. 4 e ([3]; substrate Tyr 500 μM): 0.6788 | AVE, dose-response Fig. 4 e ([3]; substrate Tyr 1000 μM): 0.7749 | AVE, dose-response Fig. 4 e ([3]; substrate Tyr 1500 μM): 0.7754 | AVE, dose-response Fig. 4 e ([3]; substrate Tyr 2000 μM): 0.7447 | AVE of Repeat 1-3, sensor signal with ligand (Supplementary Fig. 7 c) [2]: 11224.3 | fluorescence response of GECFINDER to each substrate, AVE of 3 repeats [2]: -0.01776
